Experimental data reported in US20210009542A1 (Calico Life Sciences LLC, priority 2018, published 2021).
Read-outs that look alike come from different tables or passages of the source.

Columns and labels:
pSTAT5 in CD3+ T cells = experiment: pSTAT5 flow cytometry assay in mouse whole blood; assay type: in vivo; conditions: 300 mg/kg/dose oral BID; day 8 of dosing, 2 hours post 16th dose; 100 ng/mL murine IL-2
Method: Whole blood was drawn into EDTA powder coated tubes by cardiac puncture from mice on day 8 of dosing with indicated PTPN2/1B inhibitor (2 hours after the 16th dose). 100 μL of whole blood were stimulated with 100 ng/mL murine IL-2 (R&D Systems, Minneapolis, Minn., cat #402-ML) for 20 minutes at 37° C., 5% CO2. After stimulation, 1.8 mL of prewarmed BD Phosflow Lyse/Fix Buffer (BD Biosciences, San Jose, Calif.) was added for 20 minutes at 37° C. Cells were washed twice in FACS buffer (Dulbecco's PBS with 0.2% BSA) and incubated for 30 minutes on ice in cold Perm Buffer III (BD Biosciences, San Jose, Calif.). Cells were washed with FACS buffer and resuspended in […] of FACS buffer with antibodies and stained for 3 hours at room temperature with gentle shaking. […] After staining, cells were washed twice with FACS buffer, and the samples were acquired on a BD LSRFortessa™ X20 flow cytometers (BD Biosciences, San Jose, Calif.) and analyzed with FLowJo V10 software (FlowJo, Ashland, Oreg.). The mean fluorescence intensity (MFI) of pSTAT5 as a measure of the amount of phosphorylated STAT5 in the CD3+ T cell population was reported as fold-change of compound treated over vehicle treated animal groups.

IP10 = experiment: Cytokine measurement in mouse plasma (IP10); assay type: in vivo; conditions: 300 mg/kg/dose oral BID; day 8 of dosing, 2 hours post 16th dose
Method: Whole blood was drawn into sodium heparin by cardiac puncture from mice on day 8 of dosing with indicated PTPN2/1B inhibitor (2 hours after the 16th dose) and plasma was prepared by centrifugation. Cytokines in plasma were measured using the Th1/Th2 Cytokine & Chemokine 20-Plex Mouse ProcartaPlex™ Panel 1 (Invitrogen, Carlsbad, Calif.). IP10 levels were expressed as fold-changes over the vehicle control animal group.

[1] = target: T1, His tagged PTPN2 (TC45) protein (Homo sapiens, UniProt P17706); experiment: Mobility shift assay (MSA) for potency of PTPN2 inhibitors; assay type: biochemical
T1 construct: made in house
T1 sequence (P17706 with tags, fused parts or gaps isoform P17706-2): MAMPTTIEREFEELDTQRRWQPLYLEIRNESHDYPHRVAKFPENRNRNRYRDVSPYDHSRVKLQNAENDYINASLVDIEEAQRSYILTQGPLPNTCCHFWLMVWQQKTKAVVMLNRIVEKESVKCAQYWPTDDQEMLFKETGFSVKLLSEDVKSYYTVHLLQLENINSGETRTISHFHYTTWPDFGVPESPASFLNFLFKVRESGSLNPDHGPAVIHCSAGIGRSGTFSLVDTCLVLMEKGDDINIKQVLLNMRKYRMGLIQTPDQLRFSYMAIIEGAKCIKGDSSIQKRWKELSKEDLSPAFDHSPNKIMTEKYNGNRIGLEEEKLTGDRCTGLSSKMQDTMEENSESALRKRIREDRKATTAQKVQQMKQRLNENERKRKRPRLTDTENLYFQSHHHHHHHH
Outline: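 His-tagged PTPN2 TC45 (0.5 nM) was preincubated with compound (12-point, 1:3) for 10 min at room temperature in 50 mM HEPES pH 7.5, 1 mM EGTA, 10 mM EDTA, 0.01% Tween 20, 2 mM DTT. OG488-labelled phospho-insulin-receptor peptide ([…]) was then added for 10 min. After quenching, dephosphorylation was measured by microfluidic mobility shift and IC50 derived from % inhibition.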

[2] = test system: Granzyme B+ cells within CD8+ T cells; experiment: Granzyme B staining of CD8 T cells flow cytometry assay in mouse spleen; assay type: in vivo; conditions: 300 mg/kg/dose oral BID; day 8 of dosing, 2 hours post 16th dose
Method: Mice were sacrificed on day 8 of dosing with indicated PTPN2/1B inhibitor (2 hours after the 16th dose) and spleens were excised. Spleens were dissociated with a gentleMACS dissociator (Miltenyi Biotec, Bergisch Gladbach, Germany), red blood cells lysed, and single cell suspensions were prepared. Splenocytes were stained with Zombie UV™ Fixable Viability kit (Biolegend, San Diego, Calif.) diluted in Dulbecco's PBS for 10 minutes at room temperature to exclude dead cells followed by staining for surface markers for 45 minutes on ice using the following flow cytometry antibodies diluted in autoMACS Running Buffer (Miltenyi Biotec, Bergisch Gladbach, Germany): Brilliant Violet 510-labeled anti-CD45, Brilliant Ultraviolet 395-labeled anti-CD3, Brilliant Violet 786-labeled anti-CD4, APC/Cy7-labeled anti-CD8. […] After staining, cells were washed twice with autoMACS Running Buffer, and the samples were acquired on a BD LSRFortessa™ X20 flow cytometers (BD Biosciences, San Jose, Calif.) and analyzed with FLowJo V10 software (FlowJo, Ashland, Oreg.). […]

| SMILES | pSTAT5 level in CD3+ T cells from IL2 stimulated whole blood [fold increase over vehicle] (pSTAT5 in CD3+ T cells) [fold] | IP10 in plasma [fold increase over vehicle] (IP10) [fold] | IC50 ([1]; Table 4, read-out: PTPN2 MSA IC50) [nM] | IC50 ([1]; read-out: PTPN2 IC50) [nM] | IC50 ([1]; read-out: PTPN2 MSA IC50) [nM] | % GzB+ cells within splenic CD8+ T cells [fold change over vehicle] [2] [fold] |
| --- | --- | --- | --- | --- | --- | --- |
| COc1ccc2cc(O)c(N3CC(=O)NS3(=O)=O)c(F)c2c1 [Compound 124, 5-(1-fluoro-3-hydroxy-7-methoxynaphthalen-2-yl)-1λ^6,2,5-thiadiazolidine-1,1,3-trione] | 2.3 | 2.5 | 1 to 10 | 4.4 | 1 to 10 | 2.9 |
| CC(C)(O)CCOc1ccc2cc(O)c(N3CC(=O)NS3(=O)=O)c(F)c2c1 [Compound 182, 5-[1-fluoro-3-hydroxy-7-(3-hydroxy-3-methylbutoxy)naphthalen-2-yl]-1λ^6,2,5-thiadiazolidine-1,1,3-trione] | – | – | – | – | < 1 | – |
